Data on five compounds can be found in patent US9498505B2, “Embelia concinna extract comprising flavonoids in cosmetic and pharmaceutical compositions” (BAYER CONSUMER CARE AG, priority 2012, dated 2016).

Molecules are shown by their SMILES. “And” between values parts separate entries of the source, which are not always exact repeats. Identical values can stand only once.

The subject of series [1] is human neutrophils. As to the kind of experiment: LTB4 release by neutrophils stimulated with opsonised zymosan (ELISA). The class given is cell-based. How it is done: (§1) The purpose of this study is the evaluation of the dry Embelia extract on the production of LTB4 (leucotriens B4) and PGE-2 (prostaglandin E-2) in human neutrophils. Venous blood from healthy donors was collected into tubes containing anticoagulant and sedimented with Dextran (Dextran T500). The supernatant was layered on Ficoll-Hypaque (density 1,077) and centrifuged at 400 g for 20 min. The cell pellet was washed in Tyrode (in mM: NaCl 137; KCl 2.6; glucose 5.6; HEPES 4.2; pH 7.4). Contaminating red blood corpuscules were lyzed. The cells were resuspended at 2.106 cells/ml in the Tyrode buffer supplemented with CaCl2 and MgCl2 (1.3 and 1 mM, respectively). Cells (2.106 cells/ml) were incubated at 37° C. in the presence or absence of the products to be tested during 15 min and then stimulated with opsonised zymosan (1 mg/ml) during 10 min. LTB4 assay was performed using a kit ELISA (Thermo Fisher ref. EHL LTB4). The quantity of LTB4 was expressed in pg/ml. PGE2 assay was performed using a kit ELISA (Assay designs ref 900-001 and SPIBIO ref 514010). The quantity of PGE2 was expressed in pg/ml. Data represent the means of values measured in one supernatant (non stimulated cells) or three supernatants (stimulated cells). Each measurement was assessed in duplicate. The means of the data were compared to the control condition (Student's t test-comparison of means—statistical significance at 95% if p<0.05* and at 99% if p<0.01**). The percentage of inhibition was calculated as follows: % inhibition=100×[(LTB4 treated with ECC (stimulated)/LTB4 control (stimulated)×100]
For orientation: ELISA stands for enzyme-linked immunosorbent assay.

Series [2] relates to sensory neurons from dorsal root ganglia. The series is described as follows: CGRP release induced by capsaicin in sensory neurons (ELISA). It counts as cell-based, newborn Wistar rat. As to the method:
FIG. 4: Evaluation by Elisa assay of CGRP release. Protocol: in vitro test on sensory neurons, Sensory neurons from dorsal root ganglia of newborn Wistar rat, pre-treatment with Embelia extract for 30 min, stimulation with capsaicin (0.3 μM) for 30 min, tested vs capsazepine (30 μM) as standard reference.
(§2) Test was performed with liquid Embelia extract according to example 1 to measure its activity on release of substance P or CGRP induced by capsaicin in sensory neurons models. Cells were isolated from dorsal root ganglia of newborn Wistar rat. Cells were cultured at 37° C., 5% CO2 and culture medium concerned DMEM-Ham F12 supplemented with N2 complement 1%, antibiotics, L-glutamine 2 mM, nerve growth factor beta 20 ng/ml, neutrophin 5 ng/ml.
(§3) Sensory neurons were then seeded in culture medium containing or not containing (control) the test compound or the reference (capsazepine at 30 μM) and cells were pre-incubated for 30 minutes. Cells were then stimulated or not stimulated (non-stimulation control) with capsaicin (a pungent and irritating agent from hot chili pepper) at 0.3 μM and incubated for 30 minutes. All experimental conditions were performed in n=3. At the end of incubation, the quantity of neuromediators (Substance P or CGRP) in culture supernatants was measured using respective ELISA kit according to the supplier's instructions. The inter-group comparisons were performed by Student's t-test for data management.
(§4) Results are expressed in % according to the following formulas: […]

For series [3] the test system is unchanged. As to the kind of experiment: Substance P release induced by capsaicin in sensory neurons (ELISA). The class given is cell-based, newborn Wistar rat. As to the method: FIG. 3: Evaluation by Elisa assay of substance P release. Protocol: in vitro test on sensory neurons, sensory neurons from dorsal root ganglia of newborn Wistar rat, pre-treatment with Embelia extract for 30 min, stimulation with capsaicin (0.3 μM) for 30 min, tested vs capsazepine (30 μM) as standard reference.
as §2, §3, §4

Series [4] shares this test system. The series is described as follows: Viability (MTT) of sensory neurons. The conditions noted are these: Capsazepine 30 μM. It counts as cell-based, newborn Wistar rat. As to the method:
A preliminary cytotoxicity test to select doses for further assay was performed with viability test (MMT assay).

In series [5] the test system is mast cells (Peritoneal cells from Wistar rat including ~50% mast cells). As to the kind of experiment: Histamine release from mast cells after CP48/80-induced degranulation (ELISA). It counts as cell-based. As to the method:
FIG. 2: Evaluation by Elisa assay of histamine release after induced mast cells degranulation. Protocol: in vitro test on mast murine cells, peritoneal cells from Wistar rat including ˜50% mast cells, re-treatment with Embelia extract for 15 min, stimulation with CP48/80 (10 μg/ml) for 20 min, tested vs cromoglycate (10 nM) as standard reference. Test was performed with liquid Embelia extract according to example 1 comprising 7.3% dry matter to measure its activity on degranulation of mast cells (Peritoneal cells from Wistar rat including ˜50% mast cells) stimulated with CP48/80. Effects on degranulation were evaluated by measuring histamine release after stimulation. Cells were cultured at 37° C., 5% CO2 and culture medium concerned EBSS supplemented with CaCl2 1.8 mM, MgCl2 0.8 mM and Bovine serum albumine (BSA) 0.1%. Mast cells were seeded in culture medium containing or not containing (control) the test compound or the reference (cromoglycate at 10 mM) and cells were pre-incubated for 20 minutes. Cells were then stimulated or not stimulated (non-stimulation control) with histamine release inducer CP48/80 at 10 μg/ml and incubated for 20 minutes. All experimental conditions were performed in n=3. At the end of incubation, the quantity of histamine in culture supernatants was measured using an ELISA kit according to the supplier's instructions. The inter-group comparisons were performed by Student's t-test for data management. Results are expressed in % according to the following formulas: [formula]

In series [6] the test system is human basophils (KU812 cell line). The series is described as follows: Histamine release from KU812 basophils after CP48/80-induced degranulation (ELISA). The class given is cell-based. As to the method: FIG. 1: Evaluation by Elisa assay of histamine release after induced basophils degranulation. Protocol: in vitro test on human basophils (KU812 cell line), pre-treatment with Embelia extract for 20 min, stimulation with CP48/80 (10 μg/ml) for 20 min, tested vs cromoglycate (10 nM) as standard reference. Test was performed on liquid Embelia extract according to example 1 to measure its activity on degranulation of human basophils (KU812 cell line) stimulated with CP48/80. Effects on degranulation were evaluated by measuring histamine release after stimulation. Cells were cultured at 37° C., 5% CO2 and culture medium concerned EBSS supplemented with CaCl2 1.8 mM, MgCl2 0.8 mM and Bovine serum albumine (BSA) 0.1%. KU812 cells were then seeded in culture medium containing or not (control) the test compound or the reference (cromoglycate at 10 mM) and cells were pre-incubated for 20 minutes. Cells were then stimulated or not (non-stimulated control) with histamine release inducer CP48/80 at 10 μg/ml and incubated for 20 minutes. All experimental conditions were performed in n=3. At the end of incubation, the quantity of histamine in culture supernatants was measured using an ELISA kit according to the supplier's instructions. The inter-group comparisons were performed by Student's t-test for data management. Results are expressed in % according to the following formulas: [formula] [formula]

The subject of series [7] is human neutrophils. The series is described as follows: PGE2 release by neutrophils stimulated with opsonised zymosan (ELISA). It counts as cell-based. The settings on record: for PGE2: Indomethacin 1 μM. As to the method:
as §1, with “p<0.01**).” for “p<0.01**). The percentage of inhibition was calculated as follows: % inhibition=100×[(LTB4 treated with ECC (stimulated)/LTB4 control (stimulated)×100]”

[8] abbreviates: Capsazepine 30 μM, capsaicin (0.3 μM).
The mark [9] stands for this setting: Rattus norvegicus, Neuron, Capsazepine 30 μM, capsaicin (0.3 μM).
Where [10] appears, read: individual values, Capsazepine 30 μM, capsaicin (0.3 μM).
[11] abbreviates: Cromoglycate 10 mM, CP48/80 at 10 μg/ml.

As usually defined, the inhibition is the relative decrease from the control value, in per cent. A higher inhibition goes with strong suppression.

With `C[C@H]1[C@H](C)CC[C@]2(C)CC[C@]3(C)C(=CC[C@@H]4[C@@]5(C)CC[C@@H](O)[C@](C)(C(=O)O)[C@@H]5CC[C@]43C)[C@H]12` [Boswellic acid], in the series with human neutrophils [1] (Homo sapiens, Neutrophil, Boswellic acid 10 μg/ml, positive control), testing at 10 µg/mL gave an inhibition of 45%.
On to `Oc1cc2c(cc1O)CN(C(=S)NCCc1ccc(Cl)cc1)CCC2` [Capsazepine], for which, in series [2] (setting [8]), the “Mean CGRP” value was 642 pg/mL and the “Stimulated Control (%)” value is 39%. For the same compound, the inhibition at 30 µM in series [2] (setting [9]) stood at 64%. For the same compound, the “effect on capsaicin-stimulated CGRP release” value in series [2] (capsazepine 30 μM) is on record as “significantly inhibited this effect”. In addition, the “CGRP” value in series [2] (setting [10]) is 671 pg/mL and 698 pg/mL and 557 pg/mL. Further, in series [3] (setting [8]), the “% Stimulated Control (%)” value is recorded as 9% and the “Mean Substance P” value is 23 pg/mL. Besides, the inhibition at 30 µM in series [3] (setting [9]) was determined as 99%. Further, the “effect on capsaicin-stimulated substance P release” value in series [3] (capsazepine 30 μM) is on record as “significantly inhibited this effect”. In addition, the “Substance P” value in series [3] (setting [10]) was 23 pg/mL. For the same compound, in series [4] (Table 6 (substance P experiment)), the “Viability (MTT) % Stimulated Control” value worked out at 96%. Moreover, the “Viability (MTT) Stimulated Control (%)” value in series [4] (Table 7 (CGRP experiment)) was 114%.
Turning to `O=C(O)c1cc(=O)c2c(OCC(O)COc3cccc4oc(C(=O)O)cc(=O)c34)cccc2o1` [Cromoglycate], in series [5] (setting [11]), the “Inhibition (%)” value worked out at 81%, the “Mean Histamine” value is 11.7 µM and the “Stimulated Control (%)” value is 20%. In addition, the “effect on CP48/80-stimulated histamine release” value in series [5] (cromoglycate 10 mM) is listed as “significantly inhibited this effect”. Also, in series [6] (setting [11]), the “Inhibition (%)” value is 42%, the “Mean Histamine” value stood at 29.5 nM and the “Stimulated Control (%)” value was 71%. The “effect on CP48/80-stimulated histamine release” value in series [6] (cromoglycate 10 mM) is given as “significantly inhibited this effect”. In series [6] (individual values, Cromoglycate 10 mM, CP48/80 at 10 μg/ml), the “Histamine” value was 32.3 nM and 27.0 nM and 29.0 nM.
Take `COc1ccc2c(c1)c(CC(=O)O)c(C)n2C(=O)c1ccc(Cl)cc1` [Indomethacin]: the “inhibition of PGE2 release” value in the series on human neutrophils [7] (Indometacin 1 μM, positive control) is reported as 51%. Moreover, the “PGE2” value in the series with human neutrophils [7] ((NS) not stimulated) was 60 pg/mL; in the series on human neutrophils [7] ((S) stimulated with opsonised zymosan), 77.0 pg/mL.
Consider `Cc1ncc([N+](=O)[O-])n1CCO` [Metronidazole], for which at 5 µg/mL the inhibition in the series with human neutrophils [1] (Homo sapiens, Neutrophil, metronidazole 5 μg/ml, positive control) was 100%. Moreover, the “LTB4” value with human neutrophils [1] (Metronidazole (10 μg/ml), (S) stimulated with opsonised zymosan) was 530 pg/mL.
